Assay results published in ChEMBL document CHEMBL1133284, “3-Phenyl-5-methyl-2H,5H-furan-2-ones: tuning antifungal activity by varying substituents on the phenyl ring” (2000).
In brackets after ≈: the same amount, converted by molar mass.

What was measured:
Pichia kudriavzevii [1] = experiment: In vitro minimum inhibitory concentration of compound was determined against Candida krusei after 24 hr r; format: functional
Lichtheimia corymbifera [2] = experiment: In vitro minimum inhibitory concentration of compound was determined against Absidia corymbifera after 24 hr r; format: functional
Pichia kudriavzevii [3] = experiment: In vitro minimum inhibitory concentration of compound was determined against Candida krusei after 48 hr; format: functional
Nakaseomyces glabratus [4] = experiment: In vitro minimum inhibitory concentration of compound was determined against Candida glabrata after 24 hr r; format: functional
Trichophyton benhamiae [5] = experiment: In vitro minimum inhibitory concentration of compound was determined against Trichophyton mentagrophytes after 120 hr; format: functional, Arthroderma benhamiae
Trichophyton benhamiae [6] = experiment: In vitro minimum inhibitory concentration of compound was determined against Trichophyton mentagrophytes after 72 hr; format: functional, Arthroderma benhamiae
Trichosporon beigelii [7] = experiment: In vitro minimum inhibitory concentration of compound was determined against Trichosporon beigelii after 48 hr; format: functional
Aspergillus fumigatus [8] = experiment: In vitro minimum inhibitory concentration of compound was determined against Aspergillus fumigatus after 24 hr r; format: functional
Trichosporon beigelii [9] = experiment: In vitro minimum inhibitory concentration of compound was determined against Trichosporon beigelii after 24 hr r; format: functional
Nakaseomyces glabratus [10] = experiment: In vitro minimum inhibitory concentration of compound was determined against Candida glabrata after 48 hr; format: functional
Candida albicans [11] = experiment: In vitro minimum inhibitory concentration of compound was determined against Candida albicans after 24 hr r; format: functional
Candida tropicalis [12] = experiment: In vitro minimum inhibitory concentration of compound was determined against Candida tropicalis after 48 hr; format: functional
Candida albicans [13] = experiment: In vitro minimum inhibitory concentration of compound was determined against Candida albicans after 48 hr; format: functional
Lichtheimia corymbifera [14] = experiment: In vitro minimum inhibitory concentration of compound was determined against Absidia corymbifera after 48 hr; format: functional
Aspergillus fumigatus [15] = experiment: In vitro minimum inhibitory concentration of compound was determined against Aspergillus fumigatus after 48 hr; format: functional
Candida tropicalis [16] = experiment: In vitro minimum inhibitory concentration of compound was determined against Candida tropicalis after 24 hr r; format: functional

| MIC (Pichia kudriavzevii [1]) | MIC (Lichtheimia corymbifera [2]) | MIC (Pichia kudriavzevii [3]) | MIC (Nakaseomyces glabratus [4]) | MIC (Trichophyton benhamiae [5]) | MIC (Trichophyton benhamiae [6]) | MIC (Trichosporon beigelii [7]) | MIC (Aspergillus fumigatus [8]) | MIC (Trichosporon beigelii [9]) | MIC (Nakaseomyces glabratus [10]) | MIC (Candida albicans [11]) | MIC (Candida tropicalis [12]) | MIC (Candida albicans [13]) | MIC (Lichtheimia corymbifera [14]) | MIC (Aspergillus fumigatus [15]) | MIC (Candida tropicalis [16]) | SMILES |
| --- | --- | --- | --- | --- | --- | --- | --- | --- | --- | --- | --- | --- | --- | --- | --- | --- |
| > 1000 µM | 1000 µM (≈ 174 µg/mL) | > 1000 µM | > 1000 µM | 1000 µM (≈ 174 µg/mL) | 500 µM (≈ 87.1 µg/mL) | > 1000 µM | 1000 µM (≈ 174 µg/mL) | > 1000 µM | > 1000 µM | 1000 µM (≈ 174 µg/mL) | > 1000 µM | > 1000 µM | > 1000 µM | > 1000 µM | > 1000 µM | CC1C=C(c2ccccc2)C(=O)O1 (configuration not stated) |
| 250 µM (≈ 63.3 µg/mL) | 125 µM (≈ 31.6 µg/mL) | 250 µM (≈ 63.3 µg/mL) | 500 µM (≈ 127 µg/mL) | 62.5 µM (≈ 15.8 µg/mL) | 31.2 µM (≈ 7.91 µg/mL) | 250 µM (≈ 63.3 µg/mL) | 62.5 µM (≈ 15.8 µg/mL) | 125 µM (≈ 31.6 µg/mL) | 1000 µM (≈ 253 µg/mL) | 7.81 µM (≈ 1.98 µg/mL) | 500 µM (≈ 127 µg/mL) | 62.5 µM (≈ 15.8 µg/mL) | 125 µM (≈ 31.6 µg/mL) | 250 µM (≈ 63.3 µg/mL) | 250 µM (≈ 63.3 µg/mL) | CC1C=C(c2ccc(Br)cc2)C(=O)O1 (configuration not stated) |
| > 1000 µM | 1000 µM (≈ 204 µg/mL) | > 1000 µM | > 1000 µM | 250 µM (≈ 51.1 µg/mL) | 125 µM (≈ 25.5 µg/mL) | > 1000 µM | 1000 µM (≈ 204 µg/mL) | 1000 µM (≈ 204 µg/mL) | > 1000 µM | 1000 µM (≈ 204 µg/mL) | > 1000 µM | 1000 µM (≈ 204 µg/mL) | > 1000 µM | 1000 µM (≈ 204 µg/mL) | 1000 µM (≈ 204 µg/mL) | COc1ccc(C2=CC(C)OC2=O)cc1 (configuration not stated) |
| > 1000 µM | 1000 µM (≈ 188 µg/mL) | > 1000 µM | > 1000 µM | 500 µM (≈ 94.1 µg/mL) | 250 µM (≈ 47.1 µg/mL) | > 1000 µM | 1000 µM (≈ 188 µg/mL) | > 1000 µM | > 1000 µM | 1000 µM (≈ 188 µg/mL) | > 1000 µM | > 1000 µM | > 1000 µM | > 1000 µM | > 1000 µM | Cc1ccc(C2=CC(C)OC2=O)cc1 (configuration not stated) |
| 500 µM (≈ 101 µg/mL) | 250 µM (≈ 50.6 µg/mL) | > 500 µM | 500 µM (≈ 101 µg/mL) | 250 µM (≈ 50.6 µg/mL) | 125 µM (≈ 25.3 µg/mL) | 500 µM (≈ 101 µg/mL) | 250 µM (≈ 50.6 µg/mL) | 250 µM (≈ 50.6 µg/mL) | > 500 µM | 250 µM (≈ 50.6 µg/mL) | > 500 µM | 500 µM (≈ 101 µg/mL) | 250 µM (≈ 50.6 µg/mL) | 500 µM (≈ 101 µg/mL) | 500 µM (≈ 101 µg/mL) | CC[C@@H]1C=C(c2ccc(C)cc2)C(=O)O1 |
| 500 µM (≈ 96.1 µg/mL) | 500 µM (≈ 96.1 µg/mL) | 1000 µM (≈ 192 µg/mL) | > 1000 µM | 125 µM (≈ 24 µg/mL) | 125 µM (≈ 24 µg/mL) | 500 µM (≈ 96.1 µg/mL) | 250 µM (≈ 48 µg/mL) | 250 µM (≈ 48 µg/mL) | > 1000 µM | 62.5 µM (≈ 12 µg/mL) | 1000 µM (≈ 192 µg/mL) | 250 µM (≈ 48 µg/mL) | 500 µM (≈ 96.1 µg/mL) | 500 µM (≈ 96.1 µg/mL) | 500 µM (≈ 96.1 µg/mL) | CC1C=C(c2cccc(F)c2)C(=O)O1 (configuration not stated) |
| 500 µM (≈ 96.1 µg/mL) | 62.5 µM (≈ 12 µg/mL) | 500 µM (≈ 96.1 µg/mL) | 500 µM (≈ 96.1 µg/mL) | 250 µM (≈ 48 µg/mL) | 250 µM (≈ 48 µg/mL) | 250 µM (≈ 48 µg/mL) | 125 µM (≈ 24 µg/mL) | 125 µM (≈ 24 µg/mL) | 500 µM (≈ 96.1 µg/mL) | 62.5 µM (≈ 12 µg/mL) | 500 µM (≈ 96.1 µg/mL) | 250 µM (≈ 48 µg/mL) | 62.5 µM (≈ 12 µg/mL) | 125 µM (≈ 24 µg/mL) | 250 µM (≈ 48 µg/mL) | CC1C=C(c2ccc(F)cc2)C(=O)O1 (configuration not stated) |
| 250 µM (≈ 52.2 µg/mL) | 125 µM (≈ 26.1 µg/mL) | 500 µM (≈ 104 µg/mL) | 500 µM (≈ 104 µg/mL) | 62.5 µM (≈ 13 µg/mL) | 31.2 µM (≈ 6.52 µg/mL) | 250 µM (≈ 52.2 µg/mL) | 62.5 µM (≈ 13 µg/mL) | 125 µM (≈ 26.1 µg/mL) | 1000 µM (≈ 209 µg/mL) | 31.2 µM (≈ 6.52 µg/mL) | 500 µM (≈ 104 µg/mL) | 125 µM (≈ 26.1 µg/mL) | 250 µM (≈ 52.2 µg/mL) | 125 µM (≈ 26.1 µg/mL) | 250 µM (≈ 52.2 µg/mL) | CC1C=C(c2ccc(Cl)cc2)C(=O)O1 (configuration not stated) |
| 250 µM (≈ 63.3 µg/mL) | 62.5 µM (≈ 15.8 µg/mL) | 500 µM (≈ 127 µg/mL) | 250 µM (≈ 63.3 µg/mL) | 125 µM (≈ 31.6 µg/mL) | 62.5 µM (≈ 15.8 µg/mL) | 250 µM (≈ 63.3 µg/mL) | 62.5 µM (≈ 15.8 µg/mL) | 62.5 µM (≈ 15.8 µg/mL) | 500 µM (≈ 127 µg/mL) | 31.2 µM (≈ 7.91 µg/mL) | 500 µM (≈ 127 µg/mL) | 125 µM (≈ 31.6 µg/mL) | 125 µM (≈ 31.6 µg/mL) | 250 µM (≈ 63.3 µg/mL) | 250 µM (≈ 63.3 µg/mL) | CC1C=C(c2cccc(Br)c2)C(=O)O1 (configuration not stated) |
| 500 µM (≈ 110 µg/mL) | 250 µM (≈ 54.8 µg/mL) | 500 µM (≈ 110 µg/mL) | 500 µM (≈ 110 µg/mL) | 125 µM (≈ 27.4 µg/mL) | 62.5 µM (≈ 13.7 µg/mL) | 1000 µM (≈ 219 µg/mL) | 250 µM (≈ 54.8 µg/mL) | 500 µM (≈ 110 µg/mL) | 1000 µM (≈ 219 µg/mL) | 250 µM (≈ 54.8 µg/mL) | 500 µM (≈ 110 µg/mL) | 500 µM (≈ 110 µg/mL) | 250 µM (≈ 54.8 µg/mL) | 1000 µM (≈ 219 µg/mL) | 500 µM (≈ 110 µg/mL) | CC1C=C(c2ccc([N+](=O)[O-])cc2)C(=O)O1 (configuration not stated) |
| > 500 µM | 7.81 µM (≈ 1.9 µg/mL) | > 500 µM | > 500 µM | 62.5 µM (≈ 15.2 µg/mL) | 31.2 µM (≈ 7.6 µg/mL) | > 500 µM | 7.81 µM (≈ 1.9 µg/mL) | 31.2 µM (≈ 7.6 µg/mL) | > 500 µM | 31.2 µM (≈ 7.6 µg/mL) | > 500 µM | 500 µM (≈ 122 µg/mL) | 31.2 µM (≈ 7.6 µg/mL) | 62.5 µM (≈ 15.2 µg/mL) | > 500 µM | CC1C=C(c2ccc(Cl)c(Cl)c2)C(=O)O1 (configuration not stated) |

| SMILES | MIC (Pichia kudriavzevii [1]) | MIC (Lichtheimia corymbifera [2]) | MIC (Pichia kudriavzevii [3]) | MIC (Nakaseomyces glabratus [4]) | MIC (Trichophyton benhamiae [5]) | MIC (Trichophyton benhamiae [6]) | MIC (Trichosporon beigelii [7]) | MIC (Aspergillus fumigatus [8]) | MIC (Trichosporon beigelii [9]) | MIC (Nakaseomyces glabratus [10]) | MIC (Candida albicans [11]) | MIC (Candida tropicalis [12]) | MIC (Candida albicans [13]) | MIC (Lichtheimia corymbifera [14]) | MIC (Aspergillus fumigatus [15]) | MIC (Candida tropicalis [16]) |
| --- | --- | --- | --- | --- | --- | --- | --- | --- | --- | --- | --- | --- | --- | --- | --- | --- |
| CC(=O)N1CCN(c2ccc(OC[C@H]3CO[C@](Cn4ccnc4)(c4ccc(Cl)cc4Cl)O3)cc2)CC1 [KETOCONAZOLE] | 3.91 µM (≈ 2.08 µg/mL) | 31.2 µM (≈ 16.6 µg/mL) | 3.91 µM (≈ 2.08 µg/mL) | 0.24 µM (≈ 0.128 µg/mL) | 1.95 µM (≈ 1.04 µg/mL) | 0.98 µM (≈ 0.521 µg/mL) | 0.12 µM (≈ 0.0638 µg/mL) | 15.6 µM (≈ 8.31 µg/mL) | 0.12 µM (≈ 0.0638 µg/mL) | 0.49 µM (≈ 0.26 µg/mL) | 0.12 µM (≈ 0.0638 µg/mL) | 15.6 µM (≈ 8.31 µg/mL) | 0.12 µM (≈ 0.0638 µg/mL) | 31.2 µM (≈ 16.6 µg/mL) | 15.6 µM (≈ 8.31 µg/mL) | 15.6 µM (≈ 8.31 µg/mL) |
